This note sets out measurements from patent US20060183902A1, “Dihydroindolyl methanones as alpha 1a/1d adrenoreceptor modulators for the treatment of benign prostatic hypertrophy and lower urinary tract symptoms” (priority 2005, published 2006).

The structures appear in SMILES notation. Values joined by “and” are separate entries in the source; they are usually repeats but may differ in a detail not shown here. Equal entries are not always repeated. Where two headings read alike, the source gives them in different places.

In one assay the target is T1, α1d-AR (Homo sapiens, UniProt P25100).
T1 construct: expressed in transfected cells; host or cells: COS-7
T1 sequence (P25100 1-572): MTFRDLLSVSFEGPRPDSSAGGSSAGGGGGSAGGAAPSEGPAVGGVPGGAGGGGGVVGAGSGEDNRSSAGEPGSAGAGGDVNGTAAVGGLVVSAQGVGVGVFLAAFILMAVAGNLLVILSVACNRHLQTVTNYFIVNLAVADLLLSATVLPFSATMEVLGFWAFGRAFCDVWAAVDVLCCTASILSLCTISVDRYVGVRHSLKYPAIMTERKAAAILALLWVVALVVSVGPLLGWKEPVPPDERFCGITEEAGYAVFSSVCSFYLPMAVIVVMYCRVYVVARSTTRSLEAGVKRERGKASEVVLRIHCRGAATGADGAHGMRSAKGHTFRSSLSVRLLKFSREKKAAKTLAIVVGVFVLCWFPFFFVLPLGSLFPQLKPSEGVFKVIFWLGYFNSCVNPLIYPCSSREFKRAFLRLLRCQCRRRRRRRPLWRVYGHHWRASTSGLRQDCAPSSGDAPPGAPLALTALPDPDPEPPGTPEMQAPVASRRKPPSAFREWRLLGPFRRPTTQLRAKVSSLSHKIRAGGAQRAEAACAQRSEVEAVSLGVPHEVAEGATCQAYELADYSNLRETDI
As to the kind of experiment: α1-Adrenergic receptor radio-ligand (125I-HEAT) binding assay, α1d subtype. As to conditions: COS-7 cell membranes transfected with α1d-AR, 125I-HEAT 50 pM. The protocol: (§1) Membranes were prepared from COS-7 cells (African Green monkey kidney SV40-transformed cells) that had been transfected with one of the three α1-AR subtypes by the following method:
(§2) COS cells from ten 100 mm tissue culture plates were scraped into a 5 mL volume of TE (a mixture of 50 mM tris(hydroxymethyl)aminomethane hydrochloride (Tris-HCl) and 5 mM ethylenediaminetetraacetic acid (EDTA) at pH 7.4). The cell suspension was disrupted with a Brinkman Polytron (at a setting of 8) for 10 sec. The disrupted cells were centrifuged at 1000×g for 10 min at 4° C. Supernatants were centrifuged at 34,500×g for 20 min at 4° C. The membrane pellets were suspended in a 2 mL volume of TNE (a mixture of 50 mM Tris-HCl, 5 mM EDTA and 150 mM NaCl at pH7.4). An aliquot of the membrane suspension was stored at −70° C. until use. The protein concentration was determined using a BioRad “DC” protein assay kit following membrane solubilization with Triton X-100.
(§3) Triplicate determinations of radio-ligand binding in the presence of increasing concentrations of testing compound were made. The reagents were added to 96-well polypropylene plate wells. Each assay well contained 140 μL TNE, 25 μL ^125I-2-(β-4-hydroxyplenyl)ethylaminomethyltetralone (^125I-HEAT) (specific activity 2200 Ci/mmol, Dupont-New England Nuclear, 50 pM final), 10 μL testing compound dissolved in dimethyl sulfoxide (DMSO) (1 pM to 10 μM in half-log increments, final), and 25 μL appropriate α1-AR membrane subtype suspension in TNE (0.5 ng/μL for the α1a and α1b subtypes and 13 ng/μL for the α1d subtype). The plate was incubated at rt for 1 hr. The contents of the wells were filtered through a glass filter (type C) (GF/C) membrane Unifilter plate (Packard Instruments) using the Packard Filtermate cell harvester. The filter plates were dried in a vacuum oven for 30 min at 40° C. 25 μL Microscint 20 liquid scintillation fluid (Packard Instuments) was added to each well. The radioactive content was analyzed in the TopCount microplate scintillation counter (Packard Instruments).
(§4) The Ki values (in nM) shown in Table 1 were determined using GraphPad Prism software.

The next assay addresses T2, α1b-AR (Homo sapiens, UniProt P35368).
T2 construct: expressed in transfected cells; host or cells: COS-7
T2 sequence (P35368 1-520): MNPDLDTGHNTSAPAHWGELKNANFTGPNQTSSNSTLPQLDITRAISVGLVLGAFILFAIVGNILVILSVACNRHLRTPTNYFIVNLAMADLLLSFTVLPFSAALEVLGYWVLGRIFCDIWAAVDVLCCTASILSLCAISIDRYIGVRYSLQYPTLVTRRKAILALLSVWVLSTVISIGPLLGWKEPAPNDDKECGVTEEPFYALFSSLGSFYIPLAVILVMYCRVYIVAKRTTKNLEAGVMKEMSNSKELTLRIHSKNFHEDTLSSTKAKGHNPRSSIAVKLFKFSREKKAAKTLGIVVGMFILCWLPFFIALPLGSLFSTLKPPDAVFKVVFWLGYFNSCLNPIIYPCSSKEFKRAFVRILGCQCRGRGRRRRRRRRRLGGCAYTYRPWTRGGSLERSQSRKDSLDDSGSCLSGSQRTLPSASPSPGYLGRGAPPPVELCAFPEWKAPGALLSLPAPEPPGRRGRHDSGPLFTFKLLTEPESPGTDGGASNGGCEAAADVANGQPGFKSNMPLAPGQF
As to the kind of experiment: α1-Adrenergic receptor radio-ligand (125I-HEAT) binding assay, α1b subtype. Conditions: COS-7 cell membranes transfected with α1b-AR, 125I-HEAT 50 pM. The protocol: as §1, §2, §3, §4

A further assay concerns the target T3, α1a-AR (Homo sapiens, UniProt P35348).
T3 construct: expressed in transfected cells; host or cells: COS-7
T3 sequence (P35348 1-466): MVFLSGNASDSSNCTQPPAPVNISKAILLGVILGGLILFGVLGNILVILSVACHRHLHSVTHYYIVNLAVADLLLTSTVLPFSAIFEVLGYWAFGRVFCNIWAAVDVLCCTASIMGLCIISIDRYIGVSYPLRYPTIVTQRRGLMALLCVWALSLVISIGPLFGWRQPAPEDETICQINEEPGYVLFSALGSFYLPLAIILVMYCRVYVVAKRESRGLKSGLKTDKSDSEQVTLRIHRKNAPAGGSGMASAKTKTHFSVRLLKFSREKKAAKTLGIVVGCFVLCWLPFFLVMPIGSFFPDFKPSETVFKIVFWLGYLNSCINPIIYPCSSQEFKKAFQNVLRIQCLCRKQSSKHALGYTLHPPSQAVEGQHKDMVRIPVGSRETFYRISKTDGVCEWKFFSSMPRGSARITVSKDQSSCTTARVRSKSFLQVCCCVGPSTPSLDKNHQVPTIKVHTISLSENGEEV
As to the kind of experiment: α1-Adrenergic receptor radio-ligand (125I-HEAT) binding assay, α1a subtype. Conditions: COS-7 cell membranes transfected with α1a-AR, 125I-HEAT 50 pM. The protocol: as §1, §2, §3, §4

The mark [1] stands for this setting: read-out: Receptor Binding, Ki α1d-AR.
[2] abbreviates: read-out: Receptor Binding, Ki α1b-AR.
The mark [3] stands for this setting: read-out: Receptor Binding, Ki α1a-AR.

Broadly, the Ki is the dissociation constant of the complex between target and ligand, obtained from inhibition or displacement. In the case of `CC(C)Oc1ccccc1N1CCN(Cc2cccc(C(=O)N3CCc4ccc(N)cc43)c2)CC1` [Cpd 5, (6-amino-2,3-dihydro-indol-1-yl)-{3-[4-(2-isopropoxy-phenyl)-piperazin-1-ylmethyl]-phenyl}-methanone], the Ki at α1d-AR (setting [1]) was 2 nM; at α1b-AR (setting [2]), 143 nM; at α1a-AR (setting [3]), 1.9 nM.

In the case of `COc1cccc(OC)c1CNc1ccc2c(c1)N(C(=O)c1cccc(CN3CCN(c4ccccc4OC(C)C)CC3)c1)CC2` [Cpd 7, [6-(2,6-dimethoxy-benzylamino)-2,3-dihydro-indol-1-yl]-{3-[4-(2-isopropoxy-phenyl)-piperazin-1-ylmethyl]-phenyl}-methanone], the Ki is 16 nM at α1d-AR (setting [1]), 684 nM at α1b-AR (setting [2]) and 11 nM at α1a-AR (setting [3]).

In the case of `CCCCCCCCc1ccc(CNc2ccc3c(c2)N(C(=O)c2cccc(CN4CCN(c5ccccc5OC(C)C)CC4)c2)CC3)cc1` [Cpd 10, {3-[4-(2-isopropoxy-phenyl)-piperazin-1-ylmethyl]-phenyl}-[6-(4-octyl-benzylamino)-2,3-dihydro-indol-1-yl]-methanone], the Ki was 250 nM on α1d-AR (setting [1]) and 836 nM at α1a-AR (setting [3]).

In the case of `Cc1ccc(OC(=O)Nc2ccc3c(c2)N(C(=O)c2cccc(CN4CCN(c5ccccc5OC(C)C)CC4)c2)CC3)cc1` [Cpd 12, (1-{3-[4-(2-isopropoxy-phenyl)-piperazin-1-ylmethyl]-benzoyl}-2,3-dihydro-1H-indol-6-yl)-carbamic acid p-tolyl ester], the Ki on α1d-AR (Receptor Binding, Ki α1d-AR) stood at 5.7 nM; at α1b-AR (Receptor Binding, Ki α1b-AR) it was 495 nM; on α1a-AR (Receptor Binding, Ki α1a-AR) it was 3.3 nM.

In the case of `CC(C)Oc1ccccc1N1CCN(Cc2cccc(C(=O)N3CCc4ccc(NC(=S)Nc5ccccc5)cc43)c2)CC1` [Cpd 13, 1-(1-{3-[4-(2-isopropoxy-phenyl)-piperazin-1-ylmethyl]-benzoyl}-2,3-dihydro-1H-indol-6-yl)-3-phenyl-thiourea], the Ki at α1d-AR (setting [1]) was 4 nM and 3.11 nM; at α1b-AR (setting [2]), 305 nM; at α1a-AR (setting [3]), 33 nM.

On to `CC(C)Oc1ccccc1N1CCN(Cc2cccc(C(=O)N3CCc4cc(NC(=O)Nc5ccc(Cl)cc5Cl)ccc43)c2)CC1` [Cpd 14, 1-(2,4-dichloro-phenyl)-3-(1-{3-[4-(2-isopropoxy-phenyl)-piperazin-1-ylmethyl]-benzoyl}-2,3-dihydro-1H-indol-5-yl)-urea], for which the inhibitory constant (Ki) on α1d-AR (setting [1]) was found to be 4 nM; at α1a-AR (setting [3]), 22 nM.

With `CC(=O)Nc1ccc(S(=O)(=O)Nc2ccc3c(c2)N(C(=O)c2cccc(CN4CCN(c5ccccc5OC(C)C)CC4)c2)CC3)cc1` [Cpd 15, N-[4-(1-{3-[4-(2-isopropoxy-phenyl)-piperazin-1-ylmethyl]-benzoyl}-2,3-dihydro-1H-indol-6-ylsulfamoyl)-phenyl]-acetamide], the values for the Ki at α1d-AR (setting [1]), at α1b-AR (setting [2]) and on α1a-AR (setting [3]) were 700 nM, 91 nM and 1 nM, respectively.

As for `CC(C)Oc1ccccc1N1CCN(Cc2cccc(C(=O)N3CCc4ccc(NC5CCc6ccccc6C5)cc43)c2)CC1` (stereo not shown) [Cpd 16, {3-[4-(2-isopropoxy-phenyl)-piperazin-1-ylmethyl]-phenyl}-[6-(1,2,3,4-tetrahydro-naphthalen-2-ylamino)-2,3-dihydro-indol-1-yl]-methanone], the results for the Ki at α1d-AR (setting [1]), at α1b-AR (setting [2]) and on α1a-AR (setting [3]) were 3.4 nM, 282 nM and 5.5 nM, respectively.

Regarding `CC(C)Oc1ccccc1N1CCN(Cc2cccc(C(=O)N3CCc4cc(NS(N)(=O)=O)ccc43)c2)CC1` [Cpd 17, N-(1-{3-[4-(2-isopropoxy-phenyl)-piperazin-1-ylmethyl]-benzoyl}-2,3-dihydro-1H-indol-5-yl)-sulfamide], the Ki on α1d-AR (setting [1]) was found to be 7.6 nM; on α1b-AR (setting [2]) it was 812 nM; on α1a-AR (setting [3]) it was 14 nM.

`CC(C)Oc1ccccc1N1CCN(Cc2cccc(C(=O)N3CCc4ccc(NS(N)(=O)=O)cc43)c2)CC1` [Cpd 20, N-(1-{3-[4-(2-isopropoxy-phenyl)-piperazin-1-ylmethyl]-benzoyl}-2,3-dihydro-1H-indol-6-yl)-sulfamide]: the Ki is 1.9 nM and 2.6 nM at α1d-AR (setting [1]); 494 nM and 394 nM on α1b-AR (setting [2]); 4.7 nM and 8.1 nM on α1a-AR (setting [3]).

As for `CC(C)Oc1ccccc1N1CCN(Cc2cccc(C(=O)N3CCc4cc(NC(=O)Nc5ccccc5)ccc43)c2)CC1` [Cpd 21, 1-(1-{3-[4-(2-isopropoxy-phenyl)-piperazin-1-ylmethyl]-benzoyl}-2,3-dihydro-1H-indol-5-yl)-3-phenyl-urea], the Ki came to 12.5 nM on α1d-AR (setting [1]), 1390 nM on α1b-AR (setting [2]) and 73 nM at α1a-AR (setting [3]).

Regarding `COc1ccc(OC)c2c1CC(Nc1ccc3c(c1)N(C(=O)c1cccc(CN4CCN(c5ccccc5OC(C)C)CC4)c1)CC3)C2` [Cpd 29, [6-(4,7-dimethoxy-indan-2-ylamino)-2,3-dihydro-indol-1-yl]-{3-[4-(2-isopropoxy-phenyl)-piperazin-1-ylmethyl]-phenyl}-methanone], the Ki was 847 nM at α1b-AR (setting [2]) and 20.8 nM at α1a-AR (setting [3]).

In the case of `CC(C)Oc1ccccc1N1CCN(Cc2cccc(C(=O)N3CCc4ccc(NCc5ccccc5F)cc43)c2)CC1` [Cpd 44, [6-(2-fluoro-benzylamino)-2,3-dihydro-indol-1-yl]-{3-[4-(2-isopropoxy-phenyl)-piperazin-1-ylmethyl]-phenyl}-methanone], the results for the Ki at α1d-AR (setting [1]) and on α1a-AR (setting [3]) were 4.2 nM and 1.3 nM, respectively.

In the case of `CC(C)(C)OC(=O)N1CCN(Cc2cccc(C(=O)N3CCc4ccccc43)c2)CC1` [Cpd 54, 4-[3-(2,3-dihydro-indole-1-carbonyl)-benzyl]-piperazine-1-carboxylic acid tert-butyl ester], the Ki on α1a-AR (setting [3]) was found to be 67.5 nM.

On to `O=C(c1cccc(CN2CCN(c3ccccc3OCC(F)(F)F)CC2)c1)N1CCc2ccccc21` [Cpd 63, (2,3-dihydro-indol-1-yl)-(3-{4-[2-(2,2,2-trifluoro-ethoxy)-phenyl]-piperazin-1-ylmethyl}-phenyl)-methanone], for which the Ki on α1d-AR (setting [1]) was 0.5 nM and 1.9 nM.
